In ChEMBL document CHEMBL1201862, “PubChem BioAssay data set” (2004):
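1) Cells in 96-well plates. 2) Compound, 48 h, 5 concentrations. 3) Linear interpolation between surrounding doses. 4) Unreached endpoint = highest concentration. The concentration for 50% growth inhibition is given as GI50.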 Calls of active or inactive are those of the source. Cut-off read from the data, not from the text of the source: active = GI50 up to about 1.1 µM and inactive = higher.

Tests used:
Experiment in all cases: inhibition of tumour cell growth, NCI panel, 48 h
DU-145 = tested on: DU-145
K562 = tested on: K562
HT-29 = tested on: HT-29
SK-OV-3 = tested on: SK-OV-3
SW-620 = tested on: SW-620
KM-20L2 = tested on: KM-20L2
RXF 393 = tested on: RXF 393
HCT-15 = tested on: HCT-15
SF-268 = tested on: SF-268
TK-10 = tested on: TK-10
786-0 = tested on: 786-0
NCI-H460 = tested on: NCI-H460
A549 = tested on: A549
NCI/ADR-RES = tested on: NCI/ADR-RES
ACHN = tested on: ACHN
HL-60 = tested on: HL-60
PC-3 = tested on: PC-3
EKVX = tested on: EKVX
SR = tested on: SR
HOP-92 = tested on: HOP-92

Row | Structure (SMILES) | GI50 (DU-145) | GI50 (K562) | GI50 (HT-29) | GI50 (SK-OV-3) | GI50 (SW-620) | GI50 (KM-20L2) | GI50 (RXF 393) | GI50 (HCT-15) | GI50 (SF-268) | GI50 (TK-10) | GI50 (786-0) | GI50 (NCI-H460) | GI50 (A549) | GI50 (NCI/ADR-RES) | GI50 (ACHN) | GI50 (HL-60) | GI50 (PC-3) | GI50 (EKVX) | GI50 (SR) | GI50 (HOP-92)
1 | O=C(/C=C/c1ccc(OCC(=O)N2CCN(c3ccccc3)CC2)cc1)c1ccc(Cl)cc1 | 51200 nM (inactive) | > 100000 nM (inactive) | > 100000 nM (inactive) | 27500 nM (inactive) | > 100000 nM (inactive) | > 100000 nM (inactive) | 21900 nM (inactive) | > 100000 nM | 26200 nM (inactive) | 31600 nM (inactive) | 22000 nM (inactive) | > 94200 nM (inactive) | 38700 nM (inactive) | 59200 nM (inactive) | 22400 nM (inactive) | 98200 nM (inactive) | > 91800 nM (inactive) | > 60700 nM (inactive) | > 100000 nM (inactive) | 13300 nM (inactive)
2 | COc1cc(NS(C)(=O)=O)ccc1Nc1c2ccccc2nc2c1[nH]c1ccc(NC3OC(CO)C(O)C(O)C3O)cc12 (stereo not given) | 28.1 nM (active) | 191 nM (active) | 159 nM (active) | 17.3 nM (active) | < 34.8 nM (active) | 163 nM (active) | 144 nM (active) | 152 nM | 18 nM (active) | 197 nM (active) | 24.6 nM (active) | < 10 nM (active) | < 13.4 nM (active) | 2390 nM (inactive) | < 16.1 nM (active) | 15.3 nM (active) | 90.8 nM (active) | 782 nM (active) | < 10 nM (active) | 22.4 nM (active)
